PubChem BioAssay (NCI)
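Tested at 5 concentrations; 48 h exposure; 96-well plates; endpoints linearly interpolated, else capped at highest concentration. Abbreviation: GI50, concentration required for 50% inhibition of growth. TGI: concentration producing complete growth inhibition.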

Legend:
Assay in all cases: inhibition of tumour cell growth, NCI panel, 48 h
[1] = test system: HOP-62 NSCLC
[2] = test system: LOX IMVI melanoma
[3] = test system: SK-MEL-5 melanoma
[4] = test system: COLO 205 colon
[5] = test system: CAKI-1 renal
[6] = test system: NCI/ADR-RES ovarian
[7] = test system: HL-60(TB) leukemia
[8] = test system: MALME-3M melanoma
[9] = test system: SNB-75 CNS
[10] = test system: HS 578T breast
[11] = test system: SNB-19 CNS
[12] = test system: HT29 colon
[13] = test system: SW-620 colon
[14] = test system: T-47D breast
[15] = test system: M14 melanoma
[16] = test system: HCT-15 colon
[17] = test system: 786-0 renal
[18] = test system: MDA-MB-435
[19] = test system: ACHN renal
[20] = test system: SN12C renal
[21] = test system: KM12 colon
[22] = test system: SK-OV-3 ovarian
[23] = test system: MCF7 breast
[24] = test system: OVCAR-4 ovarian
[25] = test system: HOP-92 NSCLC
[26] = test system: SK-MEL-28 melanoma
[27] = test system: UACC-257 melanoma
[28] = test system: SF-539 CNS
[29] = test system: U251 CNS
[30] = test system: NCI-H460 lung
[31] = test system: DU-145 prostate
[32] = test system: SF-295 CNS
[33] = test system: BT-549 breast
[34] = test system: PC-3 prostate
[35] = test system: NCI-H23 lung
[36] = test system: A498 renal
[37] = test system: OVCAR-8 ovarian
[38] = test system: OVCAR-3 ovarian
[39] = test system: NCI-H226 lung
[40] = test system: SR leukemia
[41] = test system: RPMI-8226 leukemia
[42] = test system: SK-MEL-2 melanoma
[43] = test system: CCRF-CEM leukemia
[44] = test system: K-562 leukemia
[45] = test system: NCI-H522 lung
[46] = test system: MOLT-4 leukemia
[47] = test system: IGROV1 ovarian
[48] = test system: TK-10 renal
[49] = test system: RXF 393 renal
[50] = test system: MDA-MB-231 breast
[51] = test system: OVCAR-5 ovarian
[52] = test system: SF-268 CNS
[53] = test system: UO-31 renal
[54] = test system: HCC-2998 colon
[55] = test system: EKVX NSCLC
[56] = test system: HCT-116 colon
[57] = test system: UACC-62 melanoma
[58] = test system: A549 NSCLC

With `COc1cccc2c1C(=O)c1c(O)c3c(c(O)c1C2=O)CC(O)(/C(C)=N/NC(=O)CCCCC(=O)N/N=C(\C)C1(O)Cc2c(O)c4c(c(O)c2C(OC2CC(N)C(O)C(C)O2)C1)C(=O)c1c(OC)cccc1C4=O)CC3OC1CC(N)C(O)C(C)O1` (stereo not given) the GI50 [1] was 0.218 µM, the TGI [1] was 1.93 µM and the GI50 [2] was 0.0803 µM. It also gave a GI50 [3] of 0.0974 µM, a TGI [3] of 0.584 µM and a GI50 [4] of 0.0877 µM. The TGI [4] was 0.44 µM, the GI50 [5] was 0.265 µM and the TGI [5] was 3.23 µM. It also gave a GI50 [6] of 17.9 µM, a TGI [6] greater than 50 µM and a GI50 [7] of 0.159 µM. The TGI [7] was 2.38 µM, the GI50 [8] was 0.146 µM and the TGI [8] was 0.973 µM. For the same molecule, the GI50 [9] was 0.118 µM, the TGI [9] was 0.867 µM and the GI50 [10] was 0.263 µM. The TGI [10] was 2.83 µM, the GI50 [11] was 0.164 µM and the TGI [11] was 1.57 µM. The GI50 [12] was 0.181 µM, the TGI [12] was greater than 50 µM and the GI50 [13] was 0.147 µM. For the same molecule, the TGI [13] was 33.4 µM, the GI50 [14] was 0.0931 µM and the TGI [14] was 2.07 µM. The GI50 [15] was 0.225 µM, the TGI [15] was 1.32 µM and the GI50 [16] was 2.89 µM. It also gave a TGI [16] greater than 50 µM, a GI50 [17] of 0.185 µM and a TGI [17] of 1.94 µM. For the same molecule, the GI50 [18] was 0.324 µM, the TGI [18] was 2.01 µM and the GI50 [19] was 0.188 µM. For the same molecule, the TGI [19] was 1.69 µM, the GI50 [20] was 0.178 µM and the TGI [20] was greater than 50 µM. The GI50 [21] was 0.361 µM, the TGI [21] was 6.12 µM and the GI50 [22] was 0.227 µM. For the same molecule, the GI50 [23] was 0.0459 µM, the TGI [23] was greater than 50 µM and the GI50 [24] was 0.401 µM. It also gave a TGI [24] of 8.43 µM, a GI50 [25] of 0.137 µM and a TGI [25] of 2.45 µM. It also gave a GI50 [26] of 0.473 µM, a TGI [26] of 1.62 µM and a GI50 [27] of 0.554 µM. It also gave a TGI [27] of 2.37 µM, a GI50 [28] of 0.121 µM and a TGI [28] of 0.465 µM. It also gave a GI50 [29] of 0.147 µM, a TGI [29] greater than 23.7 µM and a GI50 [30] of 0.0456 µM. The TGI [30] was 10.9 µM, the GI50 [31] was 0.163 µM and the TGI [31] was 1.93 µM. The GI50 [32] was 0.125 µM, the TGI [32] was 0.689 µM and the GI50 [33] was 0.511 µM. The TGI [33] was 4.35 µM, the GI50 [34] was 0.597 µM and the TGI [34] was 9.18 µM. The GI50 [35] was 0.173 µM, the TGI [35] was 1.12 µM and the GI50 [36] was 0.567 µM. The TGI [36] was 1.34 µM, the GI50 [37] was 0.215 µM and the TGI [37] was greater than 50 µM. It also gave a GI50 [38] of 0.2 µM, a TGI [38] of 2.75 µM and a GI50 [39] of 0.159 µM. For the same molecule, the TGI [39] was 1.23 µM, the GI50 [40] was 0.00827 µM and the TGI [40] was 0.0365 µM. For the same molecule, the GI50 [41] was 0.139 µM, the TGI [41] was 2.63 µM and the GI50 [42] was 0.585 µM. The TGI [42] was 1.79 µM, the GI50 [43] was 0.207 µM and the TGI [43] was 18.4 µM. It also gave a GI50 [44] of 0.222 µM, a TGI [44] greater than 23.3 µM and a GI50 [45] of 0.108 µM. The TGI [45] was 0.811 µM, the GI50 [46] was 0.0605 µM and the TGI [46] was 0.694 µM. The GI50 [47] was 0.906 µM, the TGI [47] was greater than 21 µM and the GI50 [48] was 0.716 µM. For the same molecule, the TGI [48] was greater than 14.3 µM, the GI50 [49] was 0.209 µM and the TGI [49] was 0.831 µM. It also gave a GI50 [50] of 0.749 µM, a TGI [50] greater than 50 µM and a GI50 [51] of 0.862 µM. For the same molecule, the TGI [51] was greater than 50 µM, the GI50 [52] was 0.147 µM and the TGI [52] was 4.58 µM. The GI50 [53] was 1.34 µM, the TGI [53] was greater than 22 µM and the GI50 [54] was 0.318 µM. It also gave a TGI [54] of 1.14 µM, a GI50 [55] of 0.418 µM and a TGI [55] of 21 µM. It also gave a GI50 [56] of 0.116 µM.
Work on `COC(=O)C1C(O)C(C)C(=O)C(C)/C=C\C=C(C)C(=O)Nc2c(C)c(OC(C)=O)c3c(c2O)C(=O)C(C)=C2OCOC(=C23)C(C)=CC(C)(O)C(O)C(C)C1O` (stereo not given) yielded a TGI [1] greater than 100 µM, a TGI [2] of 57.8 µM and a TGI [3] of 27.6 µM. The TGI [4] was 49.3 µM, the TGI [5] was greater than 100 µM and the TGI [6] was greater than 100 µM. For the same molecule, the TGI [7] was 48.4 µM, the TGI [8] was 49.8 µM and the TGI [9] was greater than 100 µM. For the same molecule, the TGI [10] was greater than 100 µM, the TGI [11] was greater than 100 µM and the TGI [57] was 44.2 µM. The TGI [12] was 70 µM, the TGI [13] was greater than 100 µM and the TGI [14] was greater than 100 µM. The TGI [15] was 65.9 µM, the TGI [16] was 45.6 µM and the TGI [17] was greater than 100 µM. The TGI [18] was greater than 100 µM, the TGI [19] was greater than 100 µM and the TGI [20] was greater than 100 µM. The TGI [21] was greater than 100 µM, the TGI [22] was greater than 100 µM and the TGI [23] was 90.6 µM. It also gave a TGI [25] greater than 100 µM, a TGI [26] of 60.3 µM and a TGI [27] of 32.9 µM. For the same molecule, the TGI [28] was greater than 100 µM, the TGI [29] was greater than 100 µM and the TGI [30] was 93.5 µM. For the same molecule, the TGI [31] was 28.2 µM, the TGI [32] was greater than 100 µM and the TGI [33] was greater than 100 µM. It also gave a TGI [34] greater than 100 µM, a TGI [35] of 35 µM and a TGI [36] of 82.2 µM. It also gave a TGI [37] greater than 100 µM, a TGI [38] greater than 100 µM and a TGI [39] greater than 100 µM. The TGI [40] was 87 µM, the TGI [41] was greater than 100 µM and the TGI [42] was 86.1 µM. The TGI [43] was 54.2 µM, the TGI [44] was 49.4 µM and the TGI [45] was greater than 100 µM. The TGI [46] was greater than 100 µM, the TGI [47] was 58.3 µM and the TGI [49] was greater than 100 µM. It also gave a TGI [50] greater than 100 µM, a TGI [51] greater than 100 µM and a TGI [52] greater than 100 µM. For the same molecule, the TGI [53] was greater than 100 µM, the TGI [54] was 53.2 µM and the TGI [58] was 61.2 µM. For the same molecule, the TGI [55] was greater than 100 µM and the TGI [56] was 63.9 µM.
